“And” between values parts separate entries of the source, which are not always exact repeats. Identical values can stand only once.
Assays:
[1] = target: erythrocyte KCa3.1 channels (Homo sapiens (Human), UniProt O15554); experiment: Erythrocyte KCa3.1 assay; assay type: cell-based; conditions: human erythrocytes, A23187-activated KCa3.1; read-out: RBC K (in vitro) Human IC50 (μM) Potency category
Method: Human blood was drawn from healthy human volunteers in a standard heparinized blood sampling vial (Vacutainer, Li/heparin, ED Bioscience, Plymouth, UK). The erythrocytes were packed by centrifugation, and the plasma and buffy coat were removed by aspiration. Erythrocytes were washed three times in the experimental salt solution and then stored at 0° C. until use. Blood samples from NMRI mice or from Wistar rats were treated similarly. The methodological principle is outlined in Macey et al. (1978) and further described in Strøbaek et al. (2013). Activation of the erythrocyte KCa3.1 channels were obtained by addition of the Ca^2+ ionophore A23187, which causes synchronized hyperpolarization, which is reported as a CCCP-mediated shift in the unbuffered extracellular pH of the erythrocyte suspension. Standard procedure: 3 mL unbuffered experimental salt solution (in mM: 2 KCl, 154 NaCl, 0.05 CaCl2) was heated to 37° C. with stirring. Packed erythrocytes were added (50 μL, final cytocrit 1.5%), and the extracellular pH (pHo) followed with a glass/calomel (pHG200-8/REF200, Radiometer, Denmark) electrode pair. CCCP (3 μL, final concentration 20 μM) was added followed by varying concentrations of test compounds (DMSO concentration constant). After pH stabilization at ˜7.2, A23187 (3 μL, final concentration 0.33 μM) was added to initiate the experiment. After the peak hyperpolarization was attained, the intracellular pH (pHi constant during the experiment) was found by haemolysing the erythrocytes via addition of 100 μL of Triton-X100.
The erythrocyte membrane potential, Vm, was calculated according to: […]
and the fractional remaining Ca^2+-activated K^+-conductance at the concentration C of blocker, fGK(C), was calculated from
where the K^+ equilibrium potential EK=−107 mV, the Cl^− equilibrium potential ECl=−12 mV and the Vm(0) and Vm(C) are the peak hyperpolarizations in the control and in the presence of a concentration of C of blocker respectively.
IC50 values for compounds were calculated from a plot of fGK(C) versus C by a fit to the Hill equation, using a custom program written in the IGOR-Pro software (WaveMetrics, Lake Oswego, OR, USA). All IC50-values are reported in μM.

physchem = conditions: for solubility at 16 h: 25 °C, pH 7.4, aqueous buffer, kinetic from dmso stock; for Measured Solubility in pH 7.4 phosphate buffer (mg/ml) / Measured Solubility in pH 7.4 phosphate buffer (μM): 50 mM potassium phosphate buffer pH 7.40, 16 hr at ~25° C., incubation concentration 1600 μM
Method: 2.79 g of K2HPO4 and 0.54 g of KH2PO4 was dissolved in 390 mL of milliQ water. pH was adjusted to 7.4 using 1N HCl/1N NaOH and final volume was made up to 400 mL with milliQ water.
In case of compounds not soluble/less quantity submission, 40/20/10Mm stocks were prepared and used for experiment.
Assay Procedure: • 245 μL of 50 mM phosphate buffer then 5 μL each of test compound/standards (80 mM) in their respective positions was added to the 1.1 mL 96 well plate. • DMSO Controls was prepared by taking 245 μL of 100% DMSO then 5 μL each of test compound in their respective positions and added to the 1.1 mL 96 well plate • Plate was incubated with mixing at 1600 RPM for 16 hours at room temperature (˜23 MC). • After incubation, samples were filtered using Millipore plates. • Filtrates were analysed by HPLC-UV.
Solubility is calculated using the following formula: […]

mouse model of ARDS = conditions: treatment; cited from earlier work
[2] = cited from earlier work

SMILES | IC50 [1] [µM] | solubility at 16 h (physchem) | Measured Solubility in pH 7.4 phosphate buffer (mg/ml) (physchem) | Measured Solubility in pH 7.4 phosphate buffer (μM) (physchem) | Gas exchange (mouse model of ARDS) | Water solubility [2]
COC(=O)N(CC(C)(C)N)C1(c2ccc(F)c(C(F)(F)F)c2)CC1 [Methyl (2-amino-2-methylpropyl)(1-(4-fluoro-3-(trifluoromethyl)phenyl)cyclopropyl)carbamate] | < 0.3 | 556 µg/mL and 1600 µM | – | – | – | –
COC(=O)N(CC(C)(C)N)C1(c2cc(C(F)(F)F)c(F)cn2)CC1 [Methyl (2-amino-2-methylpropyl)(1-(5-fluoro-4-(trifluoromethyl)pyridin-2-yl)cyclopropyl) carbamate] | < 1 | – | 0.5636 | 1500 | – | –
COC(=O)N(CC1(N)CC1)C1(c2ccc(F)c(C(F)(F)F)c2)CC1 [Methyl ((1-aminocyclopropyl)methyl)(1-(4-fluoro-3-(trifluoromethyl)phenyl)cyclopropyl) carbamate] | < 0.3 | – | 0.5599 | 1600 | – | –
COC(=O)N(C[C@H]1CCCN1)C1(c2ccc(F)c(OC(F)(F)F)c2)CC1 [Methyl (R)-(1-(4-fluoro-3-(trifluoromethoxy)phenyl)cyclopropyl)(pyrrolidin-2-ylmethyl)carbamate] | < 1 | 677 µg/mL and 1600 µM | – | – | – | –
COC(=O)N(C[C@H]1CCCN1C)C1(c2ccc(F)c(C(F)(F)F)c2)CC1 [Methyl (R)-(1-(4-fluoro-3-(trifluoromethyl)phenyl)cyclopropyl)((1-methylpyrrolidin-2-yl)methyl)carbamate] | < 0.3 | 558 µg/mL and 1500 µM | – | – | – | –
COC(=O)N(C[C@@]1(C)CCCN1)C1(c2ccc(F)c(C(F)(F)F)c2)CC1 [Methyl (R)-(1-(4-fluoro-3-(trifluoromethyl)phenyl)cyclopropyl)((2-methylpyrrolidin-2-yl)methyl)carbamate] | < 0.3 | 585 µg/mL and 1400 µM | – | – | – | –
COC(=O)N(C[C@H]1CCCN1)C1(c2ccc(F)c(C(F)(F)F)c2)CC1 [Methyl (R)-(1-(4-fluoro-3-(trifluoromethyl)phenyl)cyclopropyl)(pyrrolidin-2-ylmethyl)carbamate] | < 0.3 | 667 µg/mL and 1700 µM | – | – | – | –
COC(=O)N(C[C@@H]1CCCN1)C1(c2ccc(F)c(OC(F)(F)F)c2)CC1 [Methyl (S)-(1-(4-fluoro-3-(trifluoromethoxy)phenyl)cyclopropyl)(pyrrolidin-2-ylmethyl)carbamate] | < 0.3 | 674 µg/mL and 1600 µM | – | – | – | –
COC(=O)N(C[C@@H]1CCCN1C)C1(c2ccc(F)c(C(F)(F)F)c2)CC1 [Methyl (S)-(1-(4-fluoro-3-(trifluoromethyl)phenyl)cyclopropyl) ((1-methylpyrrolidin-2-yl)methyl) carbamate] | < 0.3 | – | 0.5918 | 1600 | – | –
COC(=O)N(C[C@]1(C)CCCN1)C1(c2ccc(F)c(C(F)(F)F)c2)CC1 [Methyl (S)-(1-(4-fluoro-3-(trifluoromethyl)phenyl)cyclopropyl)((2-methylpyrrolidin-2-yl)methyl)carbamate] | < 0.3 | 575 µg/mL and 1400 µM | – | – | – | –
COC(=O)N(C[C@H]1COCCN1C)C1(c2ccc(F)c(C(F)(F)F)c2)CC1 [Methyl (S)-(1-(4-fluoro-3-(trifluoromethyl)phenyl)cyclopropyl)((4-methylmorpholin-3-yl)methyl)carbamate] | < 0.3 | 600 µg/mL and 1500 µM | – | – | – | –
COC(=O)N(C[C@H]1COCCN1)C1(c2ccc(F)c(C(F)(F)F)c2)CC1 [Methyl (S)-(1-(4-fluoro-3-(trifluoromethyl)phenyl)cyclopropyl)(morpholin-3-ylmethyl) carbamate] | < 1 | – | 0.6118 | 1500 | – | –
COC(=O)N(C[C@@H]1CCCN1)C1(c2ccc(F)c(C(F)(F)F)c2)CC1 [Methyl (S)-(1-(4-fluoro-3-(trifluoromethyl)phenyl)cyclopropyl)(pyrrolidin-2-ylmethyl)carbamate] | < 0.3 | 653 µg/mL and 1600 µM | – | – | – | –
COC(=O)N(C[C@@H]1CCN1)C1(c2ccc(F)c(C(F)(F)F)c2)CC1 [Methyl (S)-(azetidin-2-ylmethyl)(1-(4-fluoro-3-(trifluoromethyl)phenyl)-cyclopropyl)carbamate] | < 1 | 591 µg/mL and 1700 µM | – | – | – | –
COC(=O)N(CC1CCN1)C1(c2ccc(F)c(OC(F)(F)F)c2)CC1 (stereo not drawn) [Methyl (azetidin-2-ylmethyl)(1-(4-fluoro-3-(trifluoromethoxy)phenyl)cyclopropyl)carbamate] | < 0.3 | 558 µg/mL and 1500 µM | – | – | – | –
COC(=O)N(CC1CCN1)C1(c2ccc(F)c(C(F)(F)F)c2)CC1 (stereo not drawn) [Methyl (azetidin-2-ylmethyl)(1-(4-fluoro-3-(trifluoromethyl)phenyl)cyclopropyl)carbamate] | < 0.3 | 687 µg/mL and 1500 µM | – | – | – | –
COC(=O)N(CCN(C)C)C1(c2ccc(F)c(C(F)(F)F)c2)CC1 [Methyl N-(2-(dimethylamino)ethyl)-N-(1-(4-fluoro-3-(trifluoromethyl)phenyl)cyclopropyl) carbamate] | < 1 | – | 0.5409 | 1600 | – | –
CC(C)(N)CNC1(c2ccc(F)c(C(F)(F)F)c2)CC1 [N1-(1-(4-fluoro-3-(trifluoromethyl)phenyl)cyclopropyl)-2-methylpropane-1,2-diamine] | < 0.3 | 482 µg/mL and 1700 µM | – | – | – | –
CC(C)(N)CN(CC1CC1)C1(c2ccc(F)c(C(F)(F)F)c2)CC1 [N1-(cyclopropylmethyl)-N1-(1-(4-fluoro-3-(trifluoromethyl)phenyl)cyclopropyl)-2-methyl propane-1,2-diamine] | < 0.3 | 511 µg/mL and 1500 µM | – | – | – | –
CC(C)(N)CN(C1CC1)C1(c2cccc(C(F)(F)F)c2)CC1 [N1-cyclopropyl-2-methyl-N1-(1-(3-(trifluoromethyl)phenyl)cyclopropyl)propane-1,2-diamine] | < 0.3 | 481 µg/mL and 1400 µM | – | – | – | –
CC(C)(N)CN(C(=O)C1CC1)C1(c2ccc(F)c(C(F)(F)F)c2)CC1 [N-(2-amino-2-methylpropyl)-N-(1-(4-fluoro-3-(trifluoromethyl)phenyl)cyclopropyl)cyclopropanecarboxamide] | < 1 | 582 µg/mL and 1200 µM | – | – | – | –
CC(C)(N)CN(C1(c2ccc(F)c(C(F)(F)F)c2)CC1)S(C)(=O)=O [N-(2-amino-2-methylpropyl)-N-(1-(4-fluoro-3-(trifluoromethyl)phenyl)cyclopropyl)methanesulfonamide] | < 0.3 | 565 µg/mL and 1500 µM | – | – | – | –
NC1(CNC2(c3ccc(F)c(C(F)(F)F)c3)CC2)CC1 [N-((1-aminocyclopropyl)methyl)-1-(4-fluoro-3-(trifluoromethyl)phenyl)cyclopropan-1-amine] | < 0.3 | 464 µg/mL and 1400 µM | – | – | – | –
Fc1ccc(C2(N(CC3CC3)C3CNC3)CC2)cc1C(F)(F)F [N-(cyclopropylmethyl)-N-(1-(4-fluoro-3-(trifluoromethyl)phenyl)cyclopropyl)azetidin-3-amine] | < 0.3 | 679 µg/mL and 1500 µM | – | – | – | –
Clc1ccccc1C(c1ccccc1)(c1ccccc1)n1cccn1 [TRAM-34] | – | – | – | – | improvement was also demonstrated | extremely low
NC(=O)C(c1ccccc1)(c1ccc(F)cc1)c1ccc(F)cc1 [senicapoc] | – | – | – | – | improvement was also demonstrated | extremely low

— patent publication US20240034717A1, “NOVEL POTASSIUM CHANNEL INHIBITORS” (Saniona A/S, priority 2020, published 2024)
